Source: patent publication US10941158B2, “Pyrazole ACC inhibitors and uses thereof” (Gilead Apollo, LLC, priority 2015, dated 2021)
In brackets after ≈: the same amount, converted by molar mass. Where two headings read alike, the source gives them in different places.

Columns and labels:
human (hACC2) ACC2 = human (hACC2) ACC2 (Homo sapiens, UniProt O00763); assay: In vitro Acetyl-CoA Carboxylase (ACC) inhibition assay (ADP-Glo), hACC2; type: biochemical
Procedure: The detailed procedure is as follows. […] 10 μL ADP glo reagent was added. […] 20 μL kinase detection reagent was added.
“NA” stands for “not assayed.”

C. albicans ATCC 90028 = assay: Anti-Fungal (Candida) Activity Assay, broth microtiter MIC; type: cell-based; details: read-out: MIC C. albicans ATCC 90028
Outline: (§1)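 Strains plated from frozen stock onto Sabouraud dextrose agar, 35 °C, 24 h; colonies suspended directly in RPMI 1640/MOPS, density from standard curves; CLSI M27-A3 microdilution; 48 h read, visual vs growth control.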

C. krusei ATCC 6258 = assay: as above; type: cell-based; details: Pichia kudriavzevii, read-out: MIC C. krusei ATCC 6258
Outline: as §1

[1] = test system: C. parapsilosis ATCC 22019; assay: as above; type: cell-based; details: Lodderomyces parapsilosis, read-out: MIC C. parapsilosis ATCC 22019
Outline: as §1

Botrtyis cinerea (Bc) = assay: Growth inhibition assay of fungal pathogens; type: cell-based; details: 48 h, read-out: Concentration at 90% Inhibition Bc
Outline: (§2)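 Percent growth inhibition was derived from 48 h OD600 and visual scores relative to 2% DMSO, with blank background subtraction. Fungi were grown from spores in 17% V8 liquid medium, R. solani from 1.5 mm plugs in ¼ PDB, with compound at final 50/10/2 or 2/0.4/0.08 ppm.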

[2] = test system: Collectotrichum graminicola (Cg); assay: Growth inhibition assay of fungal pathogens; type: cell-based; details: 48 h, read-out: Concentration at 90% Inhibition Cg
Outline: as §2

Diplodia maydis (Dm) = assay: Growth inhibition assay of fungal pathogens; type: cell-based; details: Stenocarpella maydis, 48 h, read-out: Concentration at 90% Inhibition Dm
Outline: as §2

[3] = test system: Fusarium moniliforme (Fm); assay: Growth inhibition assay of fungal pathogens; type: cell-based; details: Fusarium verticillioides, 48 h, read-out: Concentration at 90% Inhibition Fm
Outline: as §2

[4] = test system: Fusarium virguliforme (Fv); assay: Growth inhibition assay of fungal pathogens; type: cell-based; details: 48 h
Outline: as §2

[5] = test system: Phytophthora capsici (Pc); assay: Growth inhibition assay of fungal pathogens; type: cell-based; details: for IC90: Phytophthora capsici, read-out: Concentration at 90% Inhibition Pc
Outline: as §2

Rhizoctonia solani (Rs) = assay: Growth inhibition assay of fungal pathogens; type: cell-based; details: 48 h, read-out: Concentration at 90% Inhibition Rs
Outline: as §2

Septoria tritici (St) = assay: Growth inhibition assay of fungal pathogens; type: cell-based; details: for IC90: Zymoseptoria tritici, read-out: Concentration at 90% Inhibition St
Outline: as §2

fungal (fACC2) ACC2 = fungal (fACC2) ACC2 (UniProt Q00955); details: read-out: fACC2 IC50; fungal ACC2, ADP-Glo
Chain of fungal (fACC2) ACC2 (Q00955 whole entry): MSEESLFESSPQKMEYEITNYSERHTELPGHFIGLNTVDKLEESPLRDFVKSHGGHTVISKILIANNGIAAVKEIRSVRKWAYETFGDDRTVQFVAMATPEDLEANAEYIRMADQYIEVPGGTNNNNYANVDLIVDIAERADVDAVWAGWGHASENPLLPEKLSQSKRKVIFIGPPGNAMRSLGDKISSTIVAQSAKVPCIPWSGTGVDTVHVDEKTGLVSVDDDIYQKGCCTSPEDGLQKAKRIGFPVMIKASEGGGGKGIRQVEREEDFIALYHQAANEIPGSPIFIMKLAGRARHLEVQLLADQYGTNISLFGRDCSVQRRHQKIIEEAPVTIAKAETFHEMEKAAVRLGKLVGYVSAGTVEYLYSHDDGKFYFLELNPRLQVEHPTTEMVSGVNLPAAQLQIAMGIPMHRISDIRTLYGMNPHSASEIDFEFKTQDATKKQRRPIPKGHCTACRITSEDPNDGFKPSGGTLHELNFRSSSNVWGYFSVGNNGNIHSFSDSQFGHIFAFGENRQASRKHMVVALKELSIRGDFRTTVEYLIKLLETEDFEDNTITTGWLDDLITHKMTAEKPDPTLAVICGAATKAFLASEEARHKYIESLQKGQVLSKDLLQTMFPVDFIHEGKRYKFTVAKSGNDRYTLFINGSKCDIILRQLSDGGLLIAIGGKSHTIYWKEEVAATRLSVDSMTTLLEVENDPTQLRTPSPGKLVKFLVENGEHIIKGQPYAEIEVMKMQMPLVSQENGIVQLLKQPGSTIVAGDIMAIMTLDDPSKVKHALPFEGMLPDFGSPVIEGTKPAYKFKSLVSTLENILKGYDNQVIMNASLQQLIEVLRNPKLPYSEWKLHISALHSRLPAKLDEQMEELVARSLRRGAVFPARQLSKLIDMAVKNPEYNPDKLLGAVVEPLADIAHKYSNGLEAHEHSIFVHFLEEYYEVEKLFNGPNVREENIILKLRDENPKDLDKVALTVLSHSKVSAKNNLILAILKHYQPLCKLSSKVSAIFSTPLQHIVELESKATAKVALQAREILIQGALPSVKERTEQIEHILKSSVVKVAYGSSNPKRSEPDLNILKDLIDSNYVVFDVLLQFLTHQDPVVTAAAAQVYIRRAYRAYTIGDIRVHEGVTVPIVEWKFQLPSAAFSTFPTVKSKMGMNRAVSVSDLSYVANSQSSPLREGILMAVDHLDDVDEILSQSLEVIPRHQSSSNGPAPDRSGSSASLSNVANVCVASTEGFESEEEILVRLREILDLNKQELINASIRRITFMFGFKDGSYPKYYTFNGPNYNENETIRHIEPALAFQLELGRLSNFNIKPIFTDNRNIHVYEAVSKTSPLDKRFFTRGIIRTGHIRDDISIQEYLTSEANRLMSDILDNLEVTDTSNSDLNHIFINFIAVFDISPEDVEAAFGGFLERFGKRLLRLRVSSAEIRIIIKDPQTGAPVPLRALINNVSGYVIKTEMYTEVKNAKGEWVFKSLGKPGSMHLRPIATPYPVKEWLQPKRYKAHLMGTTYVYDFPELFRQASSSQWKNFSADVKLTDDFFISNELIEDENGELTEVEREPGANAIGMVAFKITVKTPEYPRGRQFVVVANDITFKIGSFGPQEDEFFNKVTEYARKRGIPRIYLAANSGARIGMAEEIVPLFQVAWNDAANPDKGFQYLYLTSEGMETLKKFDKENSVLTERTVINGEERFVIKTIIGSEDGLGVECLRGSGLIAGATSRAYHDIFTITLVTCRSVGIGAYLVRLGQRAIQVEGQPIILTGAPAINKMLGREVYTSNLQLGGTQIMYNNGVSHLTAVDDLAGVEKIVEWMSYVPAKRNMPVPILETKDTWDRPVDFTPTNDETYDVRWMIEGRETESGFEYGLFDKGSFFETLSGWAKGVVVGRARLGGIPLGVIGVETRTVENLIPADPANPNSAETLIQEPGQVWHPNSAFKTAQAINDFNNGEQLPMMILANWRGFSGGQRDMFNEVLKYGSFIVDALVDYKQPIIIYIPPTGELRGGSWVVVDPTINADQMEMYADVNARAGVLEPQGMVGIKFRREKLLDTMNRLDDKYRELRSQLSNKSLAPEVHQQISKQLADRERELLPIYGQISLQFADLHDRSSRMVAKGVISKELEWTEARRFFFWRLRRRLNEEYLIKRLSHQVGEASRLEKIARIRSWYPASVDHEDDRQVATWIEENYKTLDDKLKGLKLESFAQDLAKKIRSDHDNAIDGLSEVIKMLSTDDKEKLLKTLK
Procedure: An exemplary procedure for the in vitro ACC inhibition assay, which can be used to determine the inhibitory action of compounds of the invention toward either human (hACC2) or fungal (fACC2) ACC2, follows. The ADP-Glo™ Kinase Assay kit from Promega was used. The ADP-Glo™ Kinase Assay is a luminescent ADP detection assay to measure enzymatic activity by quantifying the amount of ADP produced during an enzyme reaction. The assay is performed in two steps; first, after the enzyme reaction, an equal volume of ADP-Glo™ Reagent is added to terminate the reaction and deplete the remaining ATP. Second, the Kinase Detection Reagent is added to simultaneously convert ADP to ATP and allow the newly synthesized ATP to be measured using a luciferase/luciferin reaction. Luminescence can be correlated to ADP concentrations by using an ATP-to-ADP conversion curve. The detailed procedure is as follows. 50 μL of the compound being tested (600 μM in DMSO) was added to a 384-well dilution plate. The compound was diluted 1:3 in succession in DMSO for each row for 11 wells. 0.5 μL ACC2 working solution was added to 384-well white Optiplate assay plate. 0.5 μL diluted compound solution in each column from step 2 was added to assay plate, each row containing 2 replicates. […] The plates were incubated at room temperature for 15 minutes. 5 μL substrate working solution was added to each well to initiate reaction. Final ACC2 reaction concentrations consist of: 5 nM ACC2, 20 μM ATP, 20 μM acetyl-CoA, 12 mM NaHCO3, 0.01% Brij35, 2 mM DTT, 5% DMSO, test compound concentrations: 30 μM, 10 μM, 3.33 μM, 1.11 μM, 0.37 μM, 0.123 μM, 0.0411 μM, 0.0137 μM, 0.00457 μM, 0.00152 μM, and 0.00051 μM. Plates were incubated at room temperature for 60 minutes. 10 μL ADP glo reagent was added. Plates were incubated at room temperature for 40 minutes. 20 μL kinase detection reagent was added. Plates were incubated at room temperature for 40 minutes, and then read on a Perkin Elmer EnVision 2104 plate reader for luminescence as Relative Light Units (RLU).
Data for each concentration, as well as the positive and negative controls were averaged, and the standard deviation calculated. Percent inhibition was calculated by the formula: 100×(average negative control−compound)/(average negative control−average positive control). The IC50 for each compound was calculated by fitting the data with a non-linear regression equation: Y=Bottom+(Top-Bottom)/(1+10^((Log IC50−X)*Hill Slope)), where X is the log of compound concentration and Y is percent inhibition.
Compounds having an activity designated as “AA” provided an IC50 0.0006-0.003 μM; provided an “A” provided an IC50 0.003-0.01 μM; compounds having an activity designated as “B” provided an IC50 0.01-0.04 μM; and compounds having an activity designated as “C” provided an IC50>0.04 μM IC50. “NA” stands for “not assayed.”

[6] = ATCC90028, 3 replicates, MIC recorded at 48 h
[7] = ATCC6258, 3 replicates, MIC recorded at 48 h
[8] = ATCC22019, 3 replicates, MIC recorded at 48 h
[9] = Table 4b, 48 hours, read-out: Concentration at 90% Inhibition Fv

Chain of human (hACC2) ACC2 (O00763 whole entry): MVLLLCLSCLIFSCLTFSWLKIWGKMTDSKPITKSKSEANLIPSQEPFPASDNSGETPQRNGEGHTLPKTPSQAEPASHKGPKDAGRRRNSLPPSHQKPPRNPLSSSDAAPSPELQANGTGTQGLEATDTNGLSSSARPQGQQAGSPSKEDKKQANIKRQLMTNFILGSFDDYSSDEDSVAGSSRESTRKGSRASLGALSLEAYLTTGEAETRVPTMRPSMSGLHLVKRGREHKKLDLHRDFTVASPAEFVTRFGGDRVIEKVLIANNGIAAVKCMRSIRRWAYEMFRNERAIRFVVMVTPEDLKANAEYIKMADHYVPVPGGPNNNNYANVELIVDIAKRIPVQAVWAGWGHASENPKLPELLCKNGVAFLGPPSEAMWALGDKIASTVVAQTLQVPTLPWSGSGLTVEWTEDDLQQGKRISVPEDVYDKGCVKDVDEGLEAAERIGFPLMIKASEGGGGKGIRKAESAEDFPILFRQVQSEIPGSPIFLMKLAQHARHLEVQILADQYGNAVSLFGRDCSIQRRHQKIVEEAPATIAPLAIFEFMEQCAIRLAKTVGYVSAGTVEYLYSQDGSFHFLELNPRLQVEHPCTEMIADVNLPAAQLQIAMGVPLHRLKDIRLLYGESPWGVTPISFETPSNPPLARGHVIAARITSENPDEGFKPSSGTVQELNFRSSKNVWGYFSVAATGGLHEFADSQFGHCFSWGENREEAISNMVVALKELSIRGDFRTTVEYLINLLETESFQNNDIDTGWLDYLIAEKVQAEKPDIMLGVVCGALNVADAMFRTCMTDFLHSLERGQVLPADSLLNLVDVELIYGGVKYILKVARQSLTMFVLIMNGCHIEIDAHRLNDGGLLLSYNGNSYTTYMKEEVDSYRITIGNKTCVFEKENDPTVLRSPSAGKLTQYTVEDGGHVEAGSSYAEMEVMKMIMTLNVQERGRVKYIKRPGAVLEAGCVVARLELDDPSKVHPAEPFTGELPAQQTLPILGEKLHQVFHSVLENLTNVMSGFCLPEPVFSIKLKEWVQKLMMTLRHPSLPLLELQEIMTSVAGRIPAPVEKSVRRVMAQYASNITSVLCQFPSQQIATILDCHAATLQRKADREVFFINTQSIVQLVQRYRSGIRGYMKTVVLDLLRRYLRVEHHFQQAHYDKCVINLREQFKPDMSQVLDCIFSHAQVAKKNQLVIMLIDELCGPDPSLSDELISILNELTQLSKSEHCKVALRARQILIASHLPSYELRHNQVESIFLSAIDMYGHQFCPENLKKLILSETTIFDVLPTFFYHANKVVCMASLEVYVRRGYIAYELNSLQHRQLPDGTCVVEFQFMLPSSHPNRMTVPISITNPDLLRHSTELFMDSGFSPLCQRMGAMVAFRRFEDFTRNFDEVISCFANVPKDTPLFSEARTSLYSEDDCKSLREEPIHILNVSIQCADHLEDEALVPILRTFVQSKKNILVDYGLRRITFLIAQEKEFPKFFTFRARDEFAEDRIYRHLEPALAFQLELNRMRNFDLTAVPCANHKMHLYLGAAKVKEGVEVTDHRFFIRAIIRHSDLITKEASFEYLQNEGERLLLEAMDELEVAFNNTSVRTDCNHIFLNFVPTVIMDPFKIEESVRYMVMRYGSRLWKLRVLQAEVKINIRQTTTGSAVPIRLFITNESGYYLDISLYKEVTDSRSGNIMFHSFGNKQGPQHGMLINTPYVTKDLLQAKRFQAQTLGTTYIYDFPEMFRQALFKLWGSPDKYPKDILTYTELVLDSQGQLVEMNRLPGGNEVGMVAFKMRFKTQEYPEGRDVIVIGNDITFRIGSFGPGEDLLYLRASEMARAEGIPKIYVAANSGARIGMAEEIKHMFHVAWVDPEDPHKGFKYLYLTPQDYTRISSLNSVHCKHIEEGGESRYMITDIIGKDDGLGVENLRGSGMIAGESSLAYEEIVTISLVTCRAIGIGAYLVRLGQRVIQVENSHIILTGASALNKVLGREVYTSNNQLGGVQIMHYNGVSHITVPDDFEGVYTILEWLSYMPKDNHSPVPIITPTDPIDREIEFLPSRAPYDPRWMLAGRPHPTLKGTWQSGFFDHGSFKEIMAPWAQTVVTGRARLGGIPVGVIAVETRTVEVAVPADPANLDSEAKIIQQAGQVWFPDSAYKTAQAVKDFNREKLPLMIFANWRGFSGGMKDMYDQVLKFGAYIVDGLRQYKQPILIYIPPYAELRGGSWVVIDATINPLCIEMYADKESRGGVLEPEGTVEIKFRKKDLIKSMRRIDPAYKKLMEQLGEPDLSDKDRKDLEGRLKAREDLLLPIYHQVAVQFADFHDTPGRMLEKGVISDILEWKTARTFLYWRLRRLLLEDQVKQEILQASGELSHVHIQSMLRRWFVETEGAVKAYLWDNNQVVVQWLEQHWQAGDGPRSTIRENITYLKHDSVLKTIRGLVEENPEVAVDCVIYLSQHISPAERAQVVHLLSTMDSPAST

SMILES | IC50 (human (hACC2) ACC2) | MIC (C. albicans ATCC 90028; [6]) | MIC (C. krusei ATCC 6258; [7]) | MIC [1, 8] | IC90 (Botrtyis cinerea (Bc); Table 4b) | IC90 ([2]; Table 4b) | IC90 (Diplodia maydis (Dm); Table 4b) | IC90 ([3]; Table 4b, 48 hours) | IC90 [4, 9] | IC90 (Rhizoctonia solani (Rs); Table 4b) | IC50 (fungal (fACC2) ACC2) | IC90 ([5]; Table 4b, 48 hours) | IC90 (Septoria tritici (St); Table 4b, 48 hours) | other results
COc1ccc(F)cc1[C@H](Cn1c(=O)n(C(C)(C)C(=O)N2CC=CC2)c(=O)c2c(C)c(-n3cccn3)sc21)OC1CCOCC1 [Compound I-45, (R)-3-(1-(2,5-dihydro-1H-pyrrol-1-yl)-2-methyl-1-oxopropan-2-yl)-1-(2-(5-fluoro-2-methoxyphenyl)-2-((tetrahydro-2H-pyran-4-yl)oxy)ethyl)-5-methyl-6-(1H-pyrazol-1-yl)thieno[2,3-d]pyrimidine-2,4(1H,3H)-dione] | 10 to 40 nM | 2.1 to 4 µg/mL (≈ 3.29 to 6.27 µM) | 0.25 to 1 µg/mL (≈ 0.392 to 1.57 µM) | 2.1 to 4 µg/mL (≈ 3.29 to 6.27 µM) | 10 µg/mL (≈ 15.7 µM) | 2 µg/mL (≈ 3.14 µM) | 10 µg/mL (≈ 15.7 µM) | 2 µg/mL (≈ 3.14 µM) | 10 µg/mL (≈ 15.7 µM) | 2 µg/mL (≈ 3.14 µM) | 0.6 to 3 nM |  |  | IC90 (Botrtyis cinerea (Bc); Table 4a): > 50 µg/mL; IC90 ([2]; Table 4a): 2 µg/mL (≈ 3.14 µM); IC90 (Diplodia maydis (Dm); Table 4a): > 50 µg/mL; IC90 ([3]; Table 4a, 48 hours): 2 µg/mL (≈ 3.14 µM); IC90 ([4]; Table 4a, 48 hours, read-out: Concentration at 90% Inhibition Fv): > 50 µg/mL; IC90 ([5]; Table 4a, 48 hours): > 50 µg/mL; Concentration at 90% Inhibition Pc ([5]; Table 4b, 48 hours): D (“D” provided a compound concentration of >50 ppm at 90% inhibition of fungal pathogens); IC90 (Rhizoctonia solani (Rs); Table 4a): 2 µg/mL (≈ 3.14 µM); Concentration at 90% Inhibition St (Septoria tritici (St); Table 4b, 48 hours): D (“D” provided a compound concentration of >50 ppm at 90% inhibition of fungal pathogens); IC90 (Septoria tritici (St); Table 4a, 48 hours): > 50 µg/mL
COCCO[C@@H](Cn1c(=O)n(C(C)(C)C(=O)NC2CCCCC2)c(=O)c2c(C)c(-n3cccn3)sc21)c1cc(F)ccc1OC [Compound I-46, (R)—N-cyclohexyl-2-(1-(2-(5-fluoro-2-methoxyphenyl)-2-(2-methoxyethoxy)ethyl)-5-methyl-2,4-dioxo-6-(1H-pyrazol-1-yl)-1,4-dihydrothieno[2,3-d]pyrimidin-3(2H)-yl)-2-methylpropanamide] | > 40 nM |  |  |  | 10 µg/mL (≈ 15.6 µM) | > 50 µg/mL | > 50 µg/mL |  |  | > 50 µg/mL | 0.6 to 3 nM |  |  | MIC (C. albicans ATCC 90028; ATCC90028, 48 h): > 4.1 µg/mL; MIC (C. krusei ATCC 6258; ATCC6258, 48 h): > 4.1 µg/mL; MIC ([1]; ATCC22019, 48 h): > 4.1 µg/mL; IC90 [3]: 2 µg/mL (≈ 3.12 µM); IC90 ([4]; read-out: Concentration at 90% Inhibition Fv, Table 4b, 48 hours): > 50 µg/mL; IC90 ([5]; 48 h, Table 4b): > 50 µg/mL; IC90 (Septoria tritici (St); 48 h, Table 4b): > 50 µg/mL
COCCO[C@@H](Cn1c(=O)n(C(C)(C)C(=O)NC2CCC2)c(=O)c2c(C)c(-n3cccn3)sc21)c1cc(F)ccc1OC [Compound I-47, (R)—N-cyclobutyl-2-(1-(2-(5-fluoro-2-methoxyphenyl)-2-(2-methoxyethoxy)ethyl)-5-methyl-2,4-dioxo-6-(1H-pyrazol-1-yl)-1,4-dihydrothieno[2,3-d]pyrimidin-3(2H)-yl)-2-methylpropanamide] | 10 to 40 nM | 0.25 to 1 µg/mL (≈ 0.407 to 1.63 µM) | 0.25 to 1 µg/mL (≈ 0.407 to 1.63 µM) | 0.25 to 1 µg/mL (≈ 0.407 to 1.63 µM) | 2 µg/mL (≈ 3.26 µM) | 10 µg/mL (≈ 16.3 µM) | > 50 µg/mL | 0.4 µg/mL (≈ 0.652 µM) | 2 µg/mL (≈ 3.26 µM) | > 50 µg/mL | 0.6 to 3 nM | > 50 µg/mL | > 50 µg/mL | 
COCCO[C@@H](Cn1c(=O)n([C@H](C)C(=O)N2CCCC2)c(=O)c2c(C)c(-n3cccn3)sc21)c1cc(F)ccc1OC [Compound I-76, 1-((R)-2-(5-fluoro-2-methoxyphenyl)-2-(2-methoxyethoxy)ethyl)-5-methyl-3-((R)-1-oxo-1-(pyrrolidin-1-yl)propan-2-yl)-6-(1H-pyrazol-1-yl)thieno[2,3-d]pyrimidine-2,4(1H,3H)-dione] | > 40 nM | > 4.1 µg/mL | > 4.1 µg/mL | > 4.1 µg/mL | > 50 µg/mL | > 50 µg/mL | > 50 µg/mL | 2 µg/mL (≈ 3.34 µM) | > 50 µg/mL | > 50 µg/mL | 3 to 10 nM | > 50 µg/mL | > 50 µg/mL | 
COc1ccc(F)cc1[C@H](Cn1c(=O)n(C(C)(C)C(N)=O)c(=O)c2c(C)c(-n3cccn3)sc21)OCCC#N [Compound I-77, (R)-2-(1-(2-(2-cyanoethoxy)-2-(5-fluoro-2-methoxyphenyl)ethyl)-5-methyl-2,4-dioxo-6-(1H-pyrazol-1-yl)-1,4-dihydrothieno[2,3-d]pyrimidin-3(2H)-yl)-2-methylpropanamide] | > 40 nM | > 4.1 µg/mL | > 4.1 µg/mL | > 4.1 µg/mL | > 50 µg/mL | > 50 µg/mL | > 50 µg/mL | 2 µg/mL (≈ 3.61 µM) | 10 µg/mL (≈ 18 µM) | > 50 µg/mL | 0.6 to 3 nM | > 50 µg/mL | > 50 µg/mL | 
COc1ccc(F)cc1[C@H](Cn1c(=O)n(C(C)(C)C(=O)N2CCCC2)c(=O)c2c(C)c(-n3cccn3)sc21)OCCC#N [Compound I-81, (R)-3-(1-(5-fluoro-2-methoxyphenyl)-2-(5-methyl-3-(2-methyl-1-oxo-1-(pyrrolidin-1-yl)propan-2-yl)-2,4-dioxo-6-(1H-pyrazol-1-yl)-3,4-dihydrothieno[2,3-d]pyrimidin-(2H)-yl)ethoxy)propanenitrile] | 3 to 10 nM | > 4.1 µg/mL | > 4.1 µg/mL | > 4.1 µg/mL | 0.4 µg/mL (≈ 0.657 µM) | 2 µg/mL (≈ 3.29 µM) | 2 µg/mL (≈ 3.29 µM) | 0.08 µg/mL (≈ 0.131 µM) | 0.4 µg/mL (≈ 0.657 µM) | 0.08 µg/mL (≈ 0.131 µM) | 0.6 to 3 nM | > 50 µg/mL | > 50 µg/mL | 
COc1ccc(F)cc1[C@H](Cn1c(=O)n(C(C)(C)C(=O)O)c(=O)c2c(C)c(-n3cccn3)sc21)OCCC#N [Compound I-82] | 10 to 40 nM | > 4.1 µg/mL | > 4.1 µg/mL | > 4.1 µg/mL | 10 µg/mL (≈ 18 µM) | > 50 µg/mL | > 50 µg/mL | 2 µg/mL (≈ 3.6 µM) | 10 µg/mL (≈ 18 µM) | 10 µg/mL (≈ 18 µM) | 0.6 to 3 nM | > 50 µg/mL | > 50 µg/mL | 
COc1ccc(F)cc1[C@@H](O)Cn1c(=O)n(C(C)(C)C(=O)O)c(=O)c2c(C)c(-n3cccn3)sc21 [Compound I-85] | 10 to 40 nM | 2.1 to 4 µg/mL (≈ 4.18 to 7.96 µM) | 0.25 to 1 µg/mL (≈ 0.497 to 1.99 µM) | 0.25 to 1 µg/mL (≈ 0.497 to 1.99 µM) | > 50 µg/mL | > 50 µg/mL | > 50 µg/mL | 10 µg/mL (≈ 19.9 µM) | > 50 µg/mL | 10 µg/mL (≈ 19.9 µM) | 0.6 to 3 nM | > 50 µg/mL | > 50 µg/mL | 
